Patent publication US11987575B2, “Tricyclic compounds as BCR-ABL inhibitors” (ASCENTAGE PHARMA (SUZHOU) CO., LTD., priority 2019, dated 2024)

Assays:
[1] = target: BaF3 (T315I mutant) (Homo sapiens, UniProt P00519, T315I, cells depend on it); assay: WST (CCK-8) anti-proliferative assay, BaF3 T315I mutant; settings: read-out: BaF3 (T315I mutant), 72 h treatment, CCK-8 readout OD 450 nm
[2] = target: BaF3(WT) (Homo sapiens, UniProt P00519); assay: WST (CCK-8) anti-proliferative assay, BaF3 WT; settings: read-out: BaF3(WT); BaF3 WT cells, 72 h treatment, CCK-8 readout OD 450 nm

| SMILES | GI50 [1] [nM] | GI50 [2] [nM] |
| --- | --- | --- |
| CC(=O)NC1CC2c3cc(C(=O)Nc4ccc(OC(F)(F)Cl)cc4)cc(-c4ccn[nH]4)c3N(C(C)C)C2C1 (stereo not drawn) [Compound 43, 2-acetamido-N-(4-(chlorodifluoromethoxy)phenyl)-4-isopropyl-5-(1H-pyrazol-5-yl)-1,2,3,3a,4,8b-hexahydrocyclopenta[b]indole-7-carboxamide] | 768 | 190 |
| CC(C)N1c2c(-c3ccn[nH]3)cc(C(=O)Nc3ccc(OC(F)(F)Cl)cc3)cc2C2CCN(C)CC21 (stereo not drawn) [Compound 40, N-(4-(chlorodifluoromethoxy)phenyl)-9-isopropyl-2-methyl-8-(1H-pyrazol-5-yl)-2,3,4,4a,9,9a-hexahydro-1H-pyrido[3,4-b]indole-6-carboxamide] | 1110 | 358 |
| CC(C)N1c2c(-c3ccn[nH]3)cc(C(=O)Nc3ccc(OC(F)(F)Cl)cc3)cc2C2CCC(NC(=O)C3CCOCC3)C21 (stereo not drawn) [Compound 31] | 40 | 15 |
| CC(C)N1c2c(-c3ccn[nH]3)cc(C(=O)Nc3ccc(OC(F)(F)Cl)cc3)cc2C2CCC(N3CCCC3=O)C21 (stereo not drawn) [Compound 35, N-(4-(chlorodifluoromethoxy)phenyl)-4-isopropyl-3-(2-oxopyrrolidin-1-yl)-5-(1H-pyrazol-5-yl)-1,2,3,3a,4,8b-hexahydrocyclopenta[b]indole-7-carboxamide] | 55 | 12 |
| CC(=O)N[C@@H]1CC[C@H]2c3cc(C(=O)Nc4ccc(OC(F)(F)Cl)cc4)cc(-c4ccncn4)c3N(CC(C)(C)C)[C@@H]12 [Compound 57-A] | 316 | 97 |
| CC(C)N1c2c(-c3ccn[nH]3)cc(C(=O)Nc3ccc(OC(F)(F)Cl)cc3)cc2C2CC(O)C(O)C21 (stereo not drawn) [Compound 3, N-(4-(chlorodifluoromethoxy)phenyl)-2,3-dihydroxy-4-isopropyl-5-(1H-pyrazol-5-yl)-1,2,3,3a,4,8b-hexahydrocyclopenta[b]indole-7-carboxamide] | 177 | 36 |
| CC(C)N1c2c(-c3ccn[nH]3)cc(C(=O)Nc3ccc(OC(F)(F)Cl)cc3)cc2C2CCC(NC(=O)N3CCOCC3)C21 (stereo not drawn) [Compound 10] | 29 | 31 |
| CC(=O)N[C@@H]1CC[C@H]2c3cc(C(=O)Nc4ccc(OC(F)(F)Cl)cc4)cc(-c4ccc(C)nc4)c3N(CC(C)(C)C)[C@@H]12 [Compound 60-A] | 92 | 13 |
| CC(C)N1c2c(-c3ccn[nH]3)cc(C(=O)Nc3ccc(OC(F)(F)Cl)cc3)cc2C2CCC(NC(=O)Nc3cnccn3)C21 (stereo not drawn) [Compound 33, N-(4-(chlorodifluoromethoxy)phenyl)-4-isopropyl-3-(3-(pyrazin-2-yl)ureido)-5-(1H-pyrazol-5-yl)-1,2,3,3a,4,8b-hexahydrocyclopenta[b]indole-7-carboxamide] | 109 | 14 |
| CC(C)N1c2c(-c3ccn[nH]3)cc(C(=O)Nc3ccc(OC(F)(F)Cl)cc3)cc2C2CCC(NC(=O)N3CCN(C)CC3)C21 (stereo not drawn) [Compound 14] | 208 | 41 |
| CC(C)N1c2c(-c3ccn[nH]3)cc(C(=O)Nc3ccc(OC(F)(F)Cl)cc3)cc2C2CCC(NS(=O)(=O)N3CCN(C)CC3)C21 (stereo not drawn) [Compound 15] | 346 | 35 |
| CC(C)N1c2c(-c3ccn[nH]3)cc(C(=O)Nc3ccc(OC(F)(F)Cl)cc3)cc2C2CCC(Nc3cnccn3)C21 (stereo not drawn) [Compound 34, N-(4-(chlorodifluoromethoxy)phenyl)-4-isopropyl-3-(pyrazin-2-ylamino)-5-(1H-pyrazol-5-yl)-1,2,3,3a,4,8b-hexahydrocyclopenta[b]indole-7-carboxamide] | 411 | 17 |
| CC(C)N1c2c(-c3ccn[nH]3)cc(C(=O)Nc3ccc(OC(F)(F)Cl)cc3)cc2C2CCC(NS(=O)(=O)C3CCOCC3)C21 (stereo not drawn) [Compound 25] | 183 | 15 |
| CC(C)N1c2c(-c3ccn[nH]3)cc(C(=O)Nc3ccc(OC(F)(F)Cl)cc3)cc2C2CCC(N3CCCCC3=O)C21 (stereo not drawn) [Compound 36, N-(4-(chlorodifluoromethoxy)phenyl)-4-isopropyl-3-(2-oxopiperidin-1-yl)-5-(1H-pyrazol-5-yl)-1,2,3,3a,4,8b-hexahydrocyclopenta[b]indole-7-carboxamide] | 84 | 9 |
| CC(C)N1c2c(-c3ccn[nH]3)cc(C(=O)Nc3ccc(OC(F)(F)Cl)cc3)cc2C2CCN(CC(F)(F)F)CC21 (stereo not drawn) [Compound 41, N-(4-(chlorodifluoromethoxy)phenyl)-9-isopropyl-8-(1H-pyrazol-5-yl)-2-(2,2,2-trifluoroethyl)-2,3,4,4a,9,9a-hexahydro-1H-pyrido[3,4-b]indole-6-carboxamide] | 850 | 120 |
| CC(C)N1c2c(-c3ccn[nH]3)cc(C(=O)Nc3ccc(OC(F)(F)Cl)cc3)cc2C2CCC(NC(=O)C3CCN(C)CC3)C21 (stereo not drawn) [Compound 32] | 2110 | 491 |
| COCCS(=O)(=O)NC1CCC2c3cc(C(=O)Nc4ccc(OC(F)(F)Cl)cc4)cc(-c4ccn[nH]4)c3N(C(C)C)C12 (stereo not drawn) [Compound 18] | 126 | 13 |
| CC(C)N1c2c(-c3ccn[nH]3)cc(C(=O)Nc3ccc(OC(F)(F)Cl)cc3)cc2C2CCC(O)C21 (stereo not drawn) [Compound 1, N-(4-(chlorodifluoromethoxy)phenyl)-3-hydroxy-4-isopropyl-5-(1H-pyrazol-5-yl)-1,2,3,3a,4,8b-hexahydrocyclopenta[b]indole-7-carboxamide] | 192 | 17 |
| CC(C)N1c2c(-c3ccn[nH]3)cc(C(=O)Nc3ccc(OC(F)(F)Cl)cc3)cc2C2CCC(NS(=O)(=O)C3CC3)C21 (stereo not drawn) [Compound 24] | 114 | 17 |
| CC(=O)N[C@@H]1CC[C@H]2c3cc(C(=O)Nc4ccc(OC(F)(F)Cl)cc4)cc(-c4ccccn4)c3N(CC(C)(C)C)[C@@H]12 [Compound 56-A] | 440 | 56 |
| CC(C)N1c2c(-c3ccn[nH]3)cc(C(=O)Nc3ccc(OC(F)(F)Cl)cc3)cc2C2CCC(N3CCNC3=O)C21 (stereo not drawn) [Compound 38, N-(4-(chlorodifluoromethoxy)phenyl)-4-isopropyl-3-(2-oxoimidazolidin-1-yl)-5-(1H-pyrazol-5-yl)-1,2,3,3a,4,8b-hexahydrocyclopenta[b]indole-7-carboxamide] | 77 | 18 |
| CC(=O)NC1CCC2c3cc(C(=O)Nc4ccc(OC(F)(F)Cl)cc4)cc(-c4ccn[nH]4)c3N(CC(C)(C)C)C12 (stereo not drawn) [Compound 22] | 21 | 3 |

More lines, now with the values ahead:

| GI50 [1] [nM] | GI50 [2] [nM] | SMILES |
| --- | --- | --- |
| 8 | 2 | CC(=O)N[C@@H]1CC[C@H]2c3cc(C(=O)Nc4ccc(OC(F)(F)Cl)cc4)cc(-c4cncc(F)c4)c3N(C(C)C)[C@@H]12 [Compound 46-A] |
| 168 | 19 | CCOC(=O)NC1CCC2c3cc(C(=O)Nc4ccc(OC(F)(F)Cl)cc4)cc(-c4ccn[nH]4)c3N(C(C)C)C12 (stereo not drawn) [Compound 28] |
| 29 | 3 | CC(=O)N[C@@H]1CC[C@H]2c3cc(C(=O)Nc4ccc(OC(F)(F)Cl)cc4)cc(-c4cccc(C#N)c4)c3N(C(C)C)[C@@H]12 [Compound 66-A] |
| 59 | 6 | CC(=O)N[C@@H]1CC[C@H]2c3cc(C(=O)Nc4ccc(OC(F)(F)Cl)cc4)cc(-c4cc(F)cnc4C#N)c3N(C(C)C)[C@@H]12 [Compound 67-A] |
| 81 | 10 | CC(=O)NC1CCC2c3cc(C(=O)Nc4ccc(OC(F)(F)Cl)cc4)cc(-c4ccn[nH]4)c3N(CC(C)C)C12 (stereo not drawn) [Compound 23] |
| 1270 | 535 | CC(=O)N[C@H]1CC[C@@H]2c3cc(C(=O)Nc4ccc(OC(F)(F)Cl)cc4)cc(-c4ccn[nH]4)c3N(C(C)C)[C@H]12 [Compound 4-B, (3S,3aS,8bR)-3-acetamido-N-(4-(chlorodifluoromethoxy)phenyl)-4-isopropyl-5-(1H-pyrazol-5-yl)-1,2,3,3a,4,8b-hexahydrocyclopenta[b]indole-7-carboxamide] |
| 1260 | 177 | CC(C)N1c2c(-c3ccn[nH]3)cc(C(=O)Nc3ccc(OC(F)(F)Cl)cc3)cc2C2CCC(NC(=O)C3CN(C)C3)C21 (stereo not drawn) [Compound 29, N-(4-(chlorodifluoromethoxy)phenyl)-4-isopropyl-3-(1-methylazetidine-3-carboxamido)-5-(1H-pyrazol-5-yl)-1,2,3,3a,4,8b-hexahydrocyclopenta[b]indole-7-carboxamide] |
| 64 | 53 | CNC(=O)NC1CCC2c3cc(C(=O)Nc4ccc(OC(F)(F)Cl)cc4)cc(-c4ccn[nH]4)c3N(C(C)C)C12 (stereo not drawn) [Compound 11] |
| 41 | 6 | CC(=O)N[C@@H]1CC[C@H]2c3cc(C(=O)Nc4ccc(OC(F)(F)Cl)cc4)cc(-c4cccnc4)c3N(C(C)C)[C@@H]12 [Compound 26-A, (3R,3aR,8bS)-3-acetamido-N-(4-(chlorodifluoromethoxy)phenyl)-4-isopropyl-5-(pyridin-3-yl)-1,2,3,3a,4,8b-hexahydrocyclopenta[b]indole-7-carboxamide] |
| 116 | 12 | COc1cncc(-c2cc(C(=O)Nc3ccc(OC(F)(F)Cl)cc3)cc3c2N(C(C)C)[C@H]2[C@H](NC(C)=O)CC[C@@H]32)c1 [Compound 51-A] |
| 1380 | 365 | CC(=O)N[C@H]1CC[C@@H]2c3cc(C(=O)Nc4ccc(OC(F)(F)Cl)cc4)cc(-c4cncnc4)c3N(C(C)C)[C@H]12 [Compound 20-B, (3S,3aS,8bR)-3-acetamido-N-(4-(chlorodifluoromethoxy)phenyl)-4-isopropyl-5-(pyrimidin-5-yl)-1,2,3,3a,4,8b-hexahydrocyclopenta[b]indole-7-carboxamide] |
